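GI50 = concentration required for 50% inhibition of growth. TGI: total growth inhibition.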
Experiments:
Experiment in all cases: DTP human tumour cell line panel, 384-well format
MDA-MB-435 melanoma = system: MDA-MB-435 melanoma
786-0 renal = system: 786-0 renal
OVCAR-4 ovarian = system: OVCAR-4 ovarian
NCI-H522 lung = system: NCI-H522 lung
HCT-15 colon = system: HCT-15 colon
MOLT-4 leukemia = system: MOLT-4 leukemia
RPMI-8226 leukemia = system: RPMI-8226 leukemia
SF-268 CNS = system: SF-268 CNS
SN12C renal = system: SN12C renal
NCI-H226 lung = system: NCI-H226 lung
LOX IMVI melanoma = system: LOX IMVI melanoma
SR leukemia = system: SR leukemia
UACC-257 melanoma = system: UACC-257 melanoma
MCF7 breast = system: MCF7 breast
SF-539 CNS = system: SF-539 CNS
PC-3 prostate = system: PC-3 prostate
OVCAR-8 ovarian = system: OVCAR-8 ovarian
SF-295 CNS = system: SF-295 CNS
SNB-19 CNS = system: SNB-19 CNS
KM12 colon = system: KM12 colon
OVCAR-3 ovarian = system: OVCAR-3 ovarian
RXF 393 renal = system: RXF 393 renal
NCI-H23 lung = system: NCI-H23 lung
BT-549 breast = system: BT-549 breast
CCRF-CEM leukemia = system: CCRF-CEM leukemia
A549 NSCLC = system: A549 NSCLC
HOP-92 NSCLC = system: HOP-92 NSCLC
COLO 205 colon = system: COLO 205 colon
ACHN renal = system: ACHN renal
HT29 colon = system: HT29 colon
CAKI-1 renal = system: CAKI-1 renal
HCC-2998 colon = system: HCC-2998 colon
SK-MEL-5 melanoma = system: SK-MEL-5 melanoma
MDA-MB-231 breast = system: MDA-MB-231 breast
HL-60(TB) leukemia = system: HL-60(TB) leukemia
UACC-62 melanoma = system: UACC-62 melanoma
HCT-116 colon = system: HCT-116 colon
SK-MEL-28 melanoma = system: SK-MEL-28 melanoma
IGROV1 ovarian = system: IGROV1 ovarian
U251 glioblastoma = system: U251 glioblastoma
MALME-3M melanoma = system: MALME-3M melanoma
MDA-MB-468 breast = system: MDA-MB-468 breast
SW-620 colon = system: SW-620 colon
OVCAR-5 ovarian = system: OVCAR-5 ovarian
NCI-H460 NSCLC = system: NCI-H460 NSCLC
M14 melanoma = system: M14 melanoma
T-47D breast = system: T-47D breast
SK-MEL-2 melanoma = system: SK-MEL-2 melanoma
K-562 leukemia = system: K-562 leukemia
DU-145 prostate = system: DU-145 prostate
HOP-62 NSCLC = system: HOP-62 NSCLC
NCI-H322M lung = system: NCI-H322M lung
SK-OV-3 ovarian = system: SK-OV-3 ovarian
A498 renal = system: A498 renal
UO-31 renal = system: UO-31 renal
TK-10 renal = system: TK-10 renal
NCI/ADR-RES ovarian = system: NCI/ADR-RES ovarian

Molecule `COc1cc(N2CCC(N3CCN(C)CC3)CC2)ccc1Nc1ncnc(Nc2ccccc2S(=O)(=O)C(C)C)n1` has a GI50 (MDA-MB-435 melanoma) of 1.95 µM, a TGI (MDA-MB-435 melanoma) of 5.18 µM and a GI50 ([…]-0 renal) of 3.08 µM. For the same molecule, the TGI (786-0 renal) was 12.6 µM, the GI50 (OVCAR-4 ovarian) was 1.49 µM and the TGI (OVCAR-4 ovarian) was 6.28 µM. It also gave a GI50 (NCI-H522 lung) of 1.86 µM, a TGI (NCI-H522 lung) of 6.09 µM and a GI50 (HCT-15 colon) of 2.97 µM. The TGI (HCT-15 colon) was 11.1 µM, the GI50 (MOLT-4 leukemia) was 1.36 µM and the TGI (MOLT-4 leukemia) was 2.71 µM. For the same molecule, the GI50 (RPMI-8226 leukemia) was 1.27 µM, the TGI (RPMI-8226 leukemia) was 4.72 µM and the GI50 (SF-268 CNS) was 3.13 µM. The TGI (SF-268 CNS) was 12.2 µM, the GI50 (SN12C renal) was 2.6 µM and the TGI (SN12C renal) was 9.92 µM. It also gave a GI50 (NCI-H226 lung) of 1.42 µM, a TGI (NCI-H226 lung) of 3.68 µM and a GI50 (LOX IMVI melanoma) of 2.3 µM. The TGI (LOX IMVI melanoma) was 4.48 µM, the GI50 (SR leukemia) was 0.0183 µM and the TGI (SR leukemia) was 0.0328 µM. It also gave a GI50 (UACC-257 melanoma) of 2.1 µM, a TGI (UACC-257 melanoma) of 6.53 µM and a GI50 (MCF7 breast) of 1.04 µM. For the same molecule, the TGI (MCF7 breast) was 6.1 µM, the GI50 (SF-539 CNS) was 2.29 µM and the TGI (SF-539 CNS) was 6.32 µM. For the same molecule, the GI50 (PC-3 prostate) was 6.17 µM, the TGI (PC-3 prostate) was 19.8 µM and the GI50 (OVCAR-8 ovarian) was 2.99 µM. It also gave a TGI (OVCAR-8 ovarian) of 10.2 µM, a GI50 (SF-295 CNS) of 3.03 µM and a TGI (SF-295 CNS) of 8.73 µM. For the same molecule, the GI50 (SNB-19 CNS) was 3.36 µM, the TGI (SNB-19 CNS) was 12.9 µM and the GI50 (KM12 colon) was 3.76 µM. It also gave a TGI (KM12 colon) of 13.2 µM, a GI50 (OVCAR-3 ovarian) of 1.58 µM and a TGI (OVCAR-3 ovarian) of 4.46 µM. The GI50 (RXF 393 renal) was 1.7 µM, the TGI (RXF 393 renal) was 6.37 µM and the GI50 (NCI-H23 lung) was 2.98 µM. It also gave a TGI (NCI-H23 lung) of 9.59 µM, a GI50 (BT-549 breast) of 10.9 µM and a TGI (BT-549 breast) of 22.9 µM. It also gave a GI50 (CCRF-CEM leukemia) of 3.46 µM, a TGI (CCRF-CEM leukemia) of 10.3 µM and a GI50 (A549 NSCLC) of 2.48 µM. For the same molecule, the TGI (A549 NSCLC) was 9.2 µM, the GI50 (HOP-92 NSCLC) was 1.06 µM and the TGI (HOP-92 NSCLC) was 3.7 µM. For the same molecule, the GI50 (COLO 205 colon) was 2.31 µM, the TGI (COLO 205 colon) was 7.37 µM and the GI50 (ACHN renal) was 1.62 µM. For the same molecule, the TGI (ACHN renal) was 5.15 µM, the GI50 (HT29 colon) was 1.29 µM and the TGI (HT29 colon) was 5.08 µM. It also gave a GI50 (CAKI-1 renal) of 2.17 µM, a TGI (CAKI-1 renal) of 5.5 µM and a GI50 (HCC-2998 colon) of 2.49 µM. For the same molecule, the TGI (HCC-2998 colon) was 14.3 µM, the GI50 (SK-MEL-5 melanoma) was 2.02 µM and the TGI (SK-MEL-5 melanoma) was 7.51 µM. The GI50 (MDA-MB-231 breast) was 1.41 µM, the TGI (MDA-MB-231 breast) was 4.94 µM and the GI50 (HL-60(TB) leukemia) was 2.68 µM. For the same molecule, the TGI (HL-60(TB) leukemia) was 5.61 µM, the GI50 (UACC-62 melanoma) was 3.1 µM and the TGI (UACC-62 melanoma) was 14.8 µM. It also gave a GI50 (HCT-116 colon) of 3.34 µM, a TGI (HCT-116 colon) of 12.4 µM and a GI50 (SK-MEL-28 melanoma) of 2.69 µM. The TGI (SK-MEL-28 melanoma) was 9.67 µM, the GI50 (IGROV1 ovarian) was 1.86 µM and the TGI (IGROV1 ovarian) was 4.46 µM. It also gave a GI50 (U251 glioblastoma) of 3.75 µM, a TGI (U251 glioblastoma) of 13.5 µM and a GI50 (MALME-3M melanoma) of 3.41 µM. It also gave a TGI (MALME-3M melanoma) of 14.1 µM, a GI50 (MDA-MB-468 breast) of 3.1 µM and a TGI (MDA-MB-468 breast) of 9.91 µM. The GI50 (SW-620 colon) was 3.26 µM, the TGI (SW-620 colon) was 12.3 µM and the GI50 (OVCAR-5 ovarian) was 1.5 µM. It also gave a TGI (OVCAR-5 ovarian) of 4.24 µM, a GI50 (NCI-H460 NSCLC) of 3.3 µM and a TGI (NCI-H460 NSCLC) of 13.7 µM. For the same molecule, the GI50 (M14 melanoma) was 2.38 µM, the TGI (M14 melanoma) was 7.72 µM and the GI50 (T-47D breast) was 1.46 µM. It also gave a TGI (T-47D breast) of 12.1 µM, a GI50 (SK-MEL-2 melanoma) of 1.43 µM and a TGI (SK-MEL-2 melanoma) of 3.68 µM. For the same molecule, the GI50 (K-562 leukemia) was 3.75 µM, the TGI (K-562 leukemia) was 15.3 µM and the GI50 (DU-145 prostate) was 3.23 µM. For the same molecule, the TGI (DU-145 prostate) was 11.8 µM, the GI50 (HOP-62 NSCLC) was 2.85 µM and the TGI (HOP-62 NSCLC) was 8.12 µM. For the same molecule, the GI50 (NCI-H322M lung) was 2.86 µM, the TGI (NCI-H322M lung) was 9.29 µM and the GI50 (SK-OV-3 ovarian) was 1.5 µM. It also gave a TGI (SK-OV-3 ovarian) of 5.26 µM, a GI50 (A498 renal) of 4.96 µM and a TGI (A498 renal) of 17 µM. The GI50 (UO-31 renal) was 1.65 µM, the TGI (UO-31 renal) was 4.44 µM and the GI50 (TK-10 renal) was 2.95 µM. For the same molecule, the TGI (TK-10 renal) was 9 µM, the GI50 (NCI/ADR-RES ovarian) was 2.56 µM and the TGI (NCI/ADR-RES ovarian) was 7.81 µM.
